Experimental data from patent publication US20080085893A1, “MATRIX METALLOPROTEASE INHIBITORS” (priority 2006, published 2008).
pIC50: −log10 of the molar value. “And” between values parts separate entries of the source, which are not always exact repeats. Equal values may be shown once.

How the values were obtained:
Type in all cases: biochemical
[1] = biological target: T1, human MMP-1 (amino acids 100-262) (Homo sapiens, UniProt P03956); test: MMP dose response assay for determining IC50, MMP-1; settings: recombinant catalytic domain, fluorescent-quench substrate 100 nM
T1 construct: human MMP-1 (amino acids 100-262); made in house
T1 sequence (P03956 100-262): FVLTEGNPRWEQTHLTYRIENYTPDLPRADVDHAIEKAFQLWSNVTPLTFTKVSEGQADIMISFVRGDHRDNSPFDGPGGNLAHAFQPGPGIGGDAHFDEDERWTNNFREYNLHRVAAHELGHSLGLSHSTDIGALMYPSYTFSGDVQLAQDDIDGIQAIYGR
Description: MMP Dose Response Assay for Determining IC50
The following method was used for determining IC50 values of different inhibitor compounds against multiple MMP enzymes. Frozen stocks of recombinantly produced MMPs were prepared in assay buffer (50 mM HEPES pH 7.4, 10 mM CaCl2, 0.05% Brij-35). […] Enzyme concentrations in the assay were determined empirically and set such that proteolytic activity was maintained in a linear range over the time-course of the experiment. […] Each concentration for each test compound was tested in triplicate. MMP enzymes were equilibrated with compounds for 1 hour at room temperature, then a fluorescent-quench substrate (Acetyl-Cys(Eu)-Pro-Leu-Gly-Leu-Lys-(QSY7)-Ala-Arg-amide) was added to a final concentration of 100 nM. […] Data was analyzed by first calculating average background value from wells that contained only substrate, and this value was subtracted from the entire plate. The 100%, or maximum value, was determined by averaging control wells that contained enzyme, substrate and DMSO. For each well, the percent of control was calculated by dividing the well value by the average DMSO value obtained above.

[2] = biological target: T2, human MMP-9 (amino acids 107-446) (Homo sapiens, UniProt P14780); test: MMP dose response assay for determining IC50, MMP-9; settings: recombinant enzyme, fluorescent-quench substrate 100 nM; read-out: MMP-9
T2 construct: human MMP-9 (amino acids 107-446); made in house
Outline: (§1)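 Recombinant enzymes in 50 mM HEPES pH 7.4, 10 mM CaCl2, 0.05% Brij-35, at empirically set levels keeping activity linear, preincubated 1 h at room temperature with compound in triplicate. Fluorescence-quench peptide substrate (Eu/QSY7) added at 100 nM final. Background-subtracted signal expressed as percent of DMSO control for IC50.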

[3] = biological target: T3, human MMP-2 (amino acids 1-660) (Homo sapiens, UniProt P08253); test: MMP dose response assay for determining IC50, MMP-2; settings: recombinant enzyme, fluorescent-quench substrate 100 nM; read-out: MMP-2
T3 construct: human MMP-2 (amino acids 1-660); made in house
T3 sequence (P08253 110-660): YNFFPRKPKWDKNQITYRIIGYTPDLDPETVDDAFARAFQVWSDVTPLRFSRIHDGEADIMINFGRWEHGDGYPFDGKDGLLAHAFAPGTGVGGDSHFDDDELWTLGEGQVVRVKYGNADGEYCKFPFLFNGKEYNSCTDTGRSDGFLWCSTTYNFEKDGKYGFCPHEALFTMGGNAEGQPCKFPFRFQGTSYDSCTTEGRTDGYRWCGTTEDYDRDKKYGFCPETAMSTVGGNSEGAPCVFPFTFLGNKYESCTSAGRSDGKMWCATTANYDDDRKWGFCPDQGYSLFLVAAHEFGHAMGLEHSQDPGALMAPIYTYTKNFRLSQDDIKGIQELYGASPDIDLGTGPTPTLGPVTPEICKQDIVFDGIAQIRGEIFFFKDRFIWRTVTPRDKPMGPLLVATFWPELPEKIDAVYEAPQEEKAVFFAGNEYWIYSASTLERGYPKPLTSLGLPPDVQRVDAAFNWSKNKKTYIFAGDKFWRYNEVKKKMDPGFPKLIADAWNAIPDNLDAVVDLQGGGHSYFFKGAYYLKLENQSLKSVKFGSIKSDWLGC
Outline: as §1

T2 sequence (P14780 107-446): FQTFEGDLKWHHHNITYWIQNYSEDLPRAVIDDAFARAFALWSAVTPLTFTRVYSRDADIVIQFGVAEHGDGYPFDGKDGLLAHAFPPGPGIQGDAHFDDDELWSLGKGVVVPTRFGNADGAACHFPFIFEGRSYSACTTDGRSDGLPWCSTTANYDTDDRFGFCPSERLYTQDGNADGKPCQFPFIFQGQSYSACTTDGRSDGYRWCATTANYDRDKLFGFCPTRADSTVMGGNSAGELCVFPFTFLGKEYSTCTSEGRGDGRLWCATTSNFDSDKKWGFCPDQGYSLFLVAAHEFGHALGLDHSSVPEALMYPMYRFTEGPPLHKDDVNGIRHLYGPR

| pIC50 [1] | pIC50 [2] | pIC50 [3] | SMILES |
| --- | --- | --- | --- |
| < 5.00 | 7.70 | 6.37 | Cc1ccc(Oc2ccc(N(C[C@H](Nc3ccc(F)c(Cl)c3)C(=O)NO)S(C)(=O)=O)cc2)cc1 [Example 42, N-Hydroxy (2S)-2-(3-chloro-4-fluorophenyl)amino-3-{N-[4-(4-methylphenoxy)phenyl],N-methanesulfonylamino}propionamide] |
| < 5.00 | 7.30 and 7.53 | 6.51 and 6.72 | CS(=O)(=O)N(C[C@H](O)C(=O)NO)c1ccc(Oc2ccccc2)cc1 [Example 12, N-Hydroxy (2S)-2-hydroxy-3-[N-(4-phenoxy)phenyl,N-methanesulfonylamino]propionamide] |
| < 5.00 | 7.97 and 7.38 | 6.68 and 6.47 | Cc1ccc(Oc2ccc(N(C[C@@H](OCc3ccccc3)C(=O)NO)S(C)(=O)=O)cc2)cc1 [Example 22, N-Hydroxy (2R)-2-benzyloxy-3-{N-[4-(4-methylphenoxy)phenyl],N-methanesulfonylamino}propionamide] |
| < 5.00 | 8.41 | 7.75 | CN(C)[C@H]1CCN([C@@H](CN(c2ccc(Oc3ccc(C(F)(F)F)cc3)cc2)S(C)(=O)=O)C(=O)NO)C1 [Example 74, N-Hydroxy (2S)-2-[(3S)-3-N,N-dimethylaminopyrrolidin-1-yl]-3-{N-[4-(4-trifluoromethylphenoxy)phenyl],N-methanesulfonylamino}propionamide] |
| < 5.00 | 6.98 | 6.33 | CS(=O)(=O)N(C[C@@H](O)C(=O)NO)c1ccc(Oc2ccccc2)cc1 [Example 11, N-Hydroxy (2R)-2-hydroxy-3-[N-(4-phenoxy)phenyl,N-methanesulfonylamino]propionamide] |
| < 5.00 | 8.15 | 6.70 | Cc1ccc(Oc2ccc(N(C[C@H](NCc3ccccc3)C(=O)NO)S(C)(=O)=O)cc2)cc1 [Example 25, N-Hydroxy (2S)-2-benzylamino-3-{N-[4-(4-methylphenoxy)phenyl],N-methanesulfonylamino}propionamide] |
| < 5.00 | 7.27 | 6.46 | Cc1ccc(Oc2ccc(N(C[C@H](O)C(=O)NO)S(=O)(=O)Cc3ccncc3)cc2)cc1 [Example 31, N-Hydroxy (2S)-2-hydroxy-3-{N-[4-(4-methylphenoxy)phenyl],N-(pryidin-4-yl)methylsulfonylamino}propionamide] |
| < 5.00 | 8.59 and 8.04 | 7.25 and 7.04 | Cc1ccc(Oc2ccc(N(C[C@H](OCc3ccccc3)C(=O)NO)S(C)(=O)=O)cc2)cc1 [Example 23, N-Hydroxy (2S)-2-benzyloxy-3-{N-[4-(4-methylphenoxy)phenyl],N-methanesulfonylamino}propionamide] |
| < 5.00 | 6.91 | 6.29 | CCCS(=O)(=O)N(C[C@H](O)C(=O)NO)c1ccc(Oc2ccc(C)cc2)cc1 [Example 15, N-Hydroxy (2S)-2-hydroxy-3-{N-[4-(4-methylphenoxy)phenyl],N-(1-propyl)sulfonylamino}propionamide] |
| < 5.00 | 8.19 and 8.07 | 8.32 and 8.36 | CS(=O)(=O)N(C[C@@H](C(=O)NO)N1CCN(C(=O)OCc2ccccc2)CC1)c1ccc(Oc2ccc(C(F)(F)F)cc2)cc1 [Example 67, N-Hydroxy (2S)-2-[(4-benzyloxycarbonyl)piperazin-1-yl]-3-{N-[4-(4-trifluoromethylphenoxy)phenyl],N-methanesulfonylamino}propionamide] |
| < 5.00 | 8.66 and 8.50 | 7.82 and 7.67 | CN(C)[C@@H]1CCN([C@@H](CN(c2ccc(Oc3ccc(C(F)(F)F)cc3)cc2)S(C)(=O)=O)C(=O)NO)C1 [Example 75, N-Hydroxy (2S)-2-[(3R)-3-N,N-dimethylaminopyrrolidin-1-yl]-3-{N-[4-(4-trifluoromethylphenoxy)phenyl],N-methanesulfonylamino}propionamide] |
